Legend:
[1] = hydrochloride compared with free form; cited from earlier work
[2] = hydrochloride compared with free form; cited from earlier work; remark: listed apart in the source
[3] = system: corneal damage in dry eye model (exorbital lacrimal gland removed); assay: Healing effect test for corneal damage (dry eye model, fluorescein staining score); type: in vivo, male SD rats
Method: Healing Effect Test for Corneal Damage Using male SD rats, a dry eye model was produced according to the method of Fujihara et al. (Invest. Ophthalmol. Vis. Sci 42 (1): 96-100 (2001)). After producing the dry eye model, cure rate of a corneal damage was determined according to the method of Miyata et al. (Japanese Review of Clinical Ophthalmology, 48 (2): 183-188 (1994)). A male SD rat was systemically anesthetized by an interperitoneal administration of Nembutal in an amount of 35 mg/kg. Subsequently, exorbital lacrimal gland was removed, and corneal damage was induced over two months. Next, a 0.01% solution of the present compound dissolved in a physiological saline solution was instilled into one eye, while the physiological saline solution (control) was instilled into the other eye, respectively, six times per day for 7 days. On day 7 after initiating the instillation, impaired part of the cornea was stained with fluorescein. Score of upper, middle and lower parts of the cornea were assessed according to the following criteria on the extent of staining by fluorescein, respectively. […] Similar test was also conducted on normal eyes as described above to determine the mean value of total scores on each part described above. 0: No punctate staining 1: Scattered staining (punctate, separated staining) 2: Moderate staining (a part of punctate staining being adjacent) 3: Heavy staining (punctate, barely separated staining) Improvement ratio of the 0.01% eye drop administration group of the present compound is shown in Table 1 calculated on the basis of the mean value of total scores of the aforementioned respective parts in the group (control) administered with a physiological saline solution eye drop as a standard value (improvement ratio: 0%), according to the following calculating formula. Mean value of the scores was obtained by averaging 8 examples in each case. [formula]

| SMILES | Oral absorptivity [1] | Solubility in comparison with the free form [2] | Improvement ratio (%) ([3]; 0.01% eye drop, six times per day for 7 days, calculated from mean total scores with saline control as 0%) | Mean value of total scores ([3]; fluorescein staining scores (0-3) of upper, middle and lower cornea summed, 0.01% solution in physiological saline instilled six times per day for 7 days, day 7, mean of 8, normal eye 2.9, control 6.1) | Improvement of the corneal damage (in words) ([3]; rat dry eye model, 0.01% eye drop) |
| --- | --- | --- | --- | --- | --- |
| COc1ccc2nc(COc3ccc(CC4SC(=O)NC4=O)cc3)n(C)c2c1 (centres unmarked) [5-[4-(6-methoxy-1-methyl-1H-benzimidazol-2-ylmethoxy)benzyl]thiazolidine-2,4-dione] | excellent oral absorptivity | remarkable elevation of solubility |  |  |  |
| COc1ccc2nc(COc3ccc(CC4SC(=O)NC4=O)cc3)n(C)c2c1 (centres unmarked) [Present compound, 5-[4-(6-methoxy-1-methyl-1H-benzimidazol-2-ylmethoxy)benzyl]thiazolidine-2,4-dione] |  |  | 53% | 4.4 | markedly improves the corneal damage |

— US7358255B2, “Therapeutic agent for keratoconjunctival disorder” (Santen Pharmaceutical Co., Ltd., priority 2003, dated 2008)
